Experimental data taken from patent US10028966B2 (Avalyn Pharma Inc., priority 2014, dated 2018).
≈ marks a conversion by molar mass, not a printed value. Where two headings read alike, the source gives them in different places.

What was measured:
CYP1A2 = target: T1, CYP1A2 (Homo sapiens, UniProt P05177); settings: hepatic microsomes; cited from earlier work
T1 construct: In vitro metabolism studies with hepatic microsomes; from tissue; host or cells: hepatic microsomes

2C19 = target: T2, 2C19 (Homo sapiens, UniProt P33261); settings: hepatic microsomes; cited from earlier work
T2 construct: In vitro metabolism studies with hepatic microsomes; from tissue; host or cells: hepatic microsomes

2D6 = target: T3, 2D6 (Homo sapiens, UniProt P10635); settings: hepatic microsomes; cited from earlier work
T3 construct: In vitro metabolism studies with hepatic microsomes; from tissue; host or cells: hepatic microsomes

[1] = system: normal human pulmonary fibroblasts; experiment: TGFβ1-induced fibroblast differentiation; format: cell-based; settings: for IC50: Homo sapiens, Pulmonary fibroblast, read-out: IC50, TGFβ-induced fibroblast differentiation; for αSMA (Fluorescence): TGFβ +
Procedure: Briefly, 20 000 cells per well were seeded in black 96 well collagen coated plates and incubate overnight (approximately 24 hours) to allow adherence. […] Cultures were then incubated for 48 hours. […] Separate controls were included for diluted cultures containing TGFβ1 or media alone. At the end of incubation, cells were fixed and stained for imaging and fluorescence plate reader quantitation. Parallel cultures were assessed for cytotoxicity using the MTS dye assay.

[2] = Process temperature development study (60°C dissolution, cooling to 25°C); format: physicochemical
Procedure: […]. […] The final volume of each formulation was 5 mL. […] Each sample was mixed thoroughly and agitated overnight at 60° C. Rapid cooling and step-wise cooling from 60° C. to 25° C. was performed. HPLC analysis was performed on samples taken after overnight incubation and after cooling to 25° C. Prior to HPLC analysis, formulations were filtered via syringe through a 0.45 μm PVDF filter.

[3] = 0% EtOH, 8% PG, 0% PS80, 92% phosphate buffer (5 mM), pH 6.6
[4] = 0% EtOH, 8% PG, 0.04% PS80, 92% phosphate buffer (5 mM), pH 6.7
[5] = 4% EtOH, 0% PG, 0.04% PS80, 96% phosphate buffer (5 mM), pH 6.6
[6] = 4% EtOH, 8% PG, 0% PS80, 88% phosphate buffer (5 mM), pH 6.7
[7] = 4% EtOH, 8% PG, 0.04% PS80, 88% phosphate buffer (5 mM), pH 6.7

T1 sequence (P05177 whole entry): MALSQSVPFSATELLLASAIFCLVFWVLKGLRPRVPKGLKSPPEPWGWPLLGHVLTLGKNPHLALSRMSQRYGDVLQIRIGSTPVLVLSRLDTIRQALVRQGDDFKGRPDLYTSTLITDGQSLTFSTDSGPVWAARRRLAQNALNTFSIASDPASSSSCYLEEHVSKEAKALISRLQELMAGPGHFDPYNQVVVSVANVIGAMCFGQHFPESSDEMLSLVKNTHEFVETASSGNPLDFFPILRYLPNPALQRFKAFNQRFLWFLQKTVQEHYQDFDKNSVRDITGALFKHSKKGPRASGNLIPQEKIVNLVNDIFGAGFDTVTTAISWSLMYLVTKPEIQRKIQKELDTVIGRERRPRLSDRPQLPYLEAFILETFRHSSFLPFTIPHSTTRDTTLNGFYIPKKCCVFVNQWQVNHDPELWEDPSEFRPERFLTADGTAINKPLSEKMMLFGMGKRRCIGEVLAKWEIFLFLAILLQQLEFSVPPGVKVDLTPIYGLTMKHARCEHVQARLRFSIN
T3 sequence (P10635 whole entry): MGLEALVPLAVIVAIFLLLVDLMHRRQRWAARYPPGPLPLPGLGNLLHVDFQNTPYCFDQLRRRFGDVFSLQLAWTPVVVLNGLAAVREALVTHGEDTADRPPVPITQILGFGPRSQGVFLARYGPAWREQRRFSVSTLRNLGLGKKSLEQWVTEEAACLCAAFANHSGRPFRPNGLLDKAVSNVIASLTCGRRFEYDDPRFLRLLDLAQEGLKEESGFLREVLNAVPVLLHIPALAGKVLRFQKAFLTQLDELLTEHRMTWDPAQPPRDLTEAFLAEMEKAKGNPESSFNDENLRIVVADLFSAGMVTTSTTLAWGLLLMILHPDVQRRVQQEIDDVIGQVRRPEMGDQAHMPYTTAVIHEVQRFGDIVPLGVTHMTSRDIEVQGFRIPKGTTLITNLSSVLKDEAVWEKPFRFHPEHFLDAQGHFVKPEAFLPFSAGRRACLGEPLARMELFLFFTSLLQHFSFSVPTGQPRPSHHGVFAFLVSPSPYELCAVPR
T2 sequence (P33261 whole entry): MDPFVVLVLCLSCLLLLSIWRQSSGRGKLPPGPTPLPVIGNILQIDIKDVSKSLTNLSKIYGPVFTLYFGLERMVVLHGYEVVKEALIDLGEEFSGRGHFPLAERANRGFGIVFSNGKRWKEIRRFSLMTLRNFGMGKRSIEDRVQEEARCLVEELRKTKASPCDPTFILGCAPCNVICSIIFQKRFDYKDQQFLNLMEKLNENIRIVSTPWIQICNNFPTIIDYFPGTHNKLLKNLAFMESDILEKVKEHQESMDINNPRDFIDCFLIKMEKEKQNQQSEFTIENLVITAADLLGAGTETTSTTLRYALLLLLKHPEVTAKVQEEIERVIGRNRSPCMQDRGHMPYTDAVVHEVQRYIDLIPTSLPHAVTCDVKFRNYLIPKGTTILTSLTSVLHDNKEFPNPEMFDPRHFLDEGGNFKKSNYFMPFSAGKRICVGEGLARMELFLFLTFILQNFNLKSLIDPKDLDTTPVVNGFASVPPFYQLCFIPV

Cc1ccc(=O)n(-c2ccccc2)c1 [pirfenidone, 5-methyl-1-phenyl-2-(1H)-pyridone]
pirfenidone metabolised via CYP1A2 (CYP1A2): approximately 48%
contribution to pirfenidone metabolism (2C19): less than 13%
contribution to pirfenidone metabolism (2D6): less than 13%
IC50 ([1]; 48 h): ~25 µg/mL (≈ 135 µM)
IC50 [1]: ~125 µg/mL (≈ 675 µM)
αSMA (Fluorescence) ([1]; Table 36, Long-term exposure (48 hours), pirfenidone 5 mcg/mL): 4.72
αSMA (Fluorescence) ([1]; Table 36, Long-term exposure (48 hours), pirfenidone 25 mcg/mL): 4.04
αSMA (Fluorescence) ([1]; Table 36, Long-term exposure (48 hours), pirfenidone 125 mcg/mL): 3.15
αSMA (Fluorescence) ([1]; Table 36, Long-term exposure (48 hours), pirfenidone 625 mcg/mL): 2.47
αSMA (Fluorescence) ([1]; Table 36, Short-term exposure, pirfenidone 5 mcg/mL): 6.76
αSMA (Fluorescence) ([1]; Table 36, Short-term exposure, pirfenidone 25 mcg/mL): 5.34
αSMA (Fluorescence) ([1]; Table 36, Short-term exposure, pirfenidone 625 mcg/mL): 3.57
αSMA (Fluorescence) ([1]; Table 37 (broader dose-response), Short-term exposure, pirfenidone 1 mcg/mL): 7.65
αSMA (Fluorescence) ([1]; Table 37 (broader dose-response), Short-term exposure, pirfenidone 10 mcg/mL): 7.75
αSMA (Fluorescence) ([1]; Table 37 (broader dose-response), Short-term exposure, pirfenidone 100 mcg/mL): 5.61
αSMA (Fluorescence) ([1]; Table 37 (broader dose-response), Short-term exposure, pirfenidone 1000 mcg/mL): 2.27
Observations: dissolution after overnight at 60° C. [2, 3]: Fully dissolved after overnight at
Observations: time stable at 25° C. before re-crystallization [2, 3]: 60 °C Stable at 25 °C for >4 hours
Pirfenidone (mg/mL) >60° C., assay content after stepwise cooling to 25° C. [2, 3]: 54.6 mg/mL
Pirfenidone (mg/mL) >Re-crystal, assay content after stepwise cooling to 25° C. and later re-crystallization [2, 3]: 18.6 mg/mL
Observations: dissolution after overnight at 60° C. [2, 4]: Fully dissolved after overnight at
Observations: time stable at 25° C. before re-crystallization [2, 4]: 60 °C Stable at 25 °C for >4 hours
Pirfenidone (mg/mL) >60° C., assay content after stepwise cooling to 25° C. [2, 4]: 52.8 mg/mL
Pirfenidone (mg/mL) >Re-crystal, assay content after stepwise cooling to 25° C. and later re-crystallization [2, 4]: 22.3 mg/mL
Observations: dissolution after overnight at 60° C. [2, 5]: Fully dissolved after overnight at
Observations: time stable at 25° C. before re-crystallization [2, 5]: 60 °C Stable at 25 °C for >4 hours
Pirfenidone (mg/mL) >60° C., assay content after stepwise cooling to 25° C. [2, 5]: 50.7 mg/mL
Pirfenidone (mg/mL) >Re-crystal, assay content after stepwise cooling to 25° C. and later re-crystallization [2, 5]: 22.4 mg/mL
Observations: dissolution after overnight at 60° C. [2, 6]: Fully dissolved after overnight at
Observations: time stable at 25° C. before re-crystallization [2, 6]: 60 °C Stable at 25 °C for >4 hours
Pirfenidone (mg/mL) >60° C., assay content after stepwise cooling to 25° C. [2, 6]: 50.34 mg/mL
Pirfenidone (mg/mL) >Re-crystal, assay content after stepwise cooling to 25° C. and later re-crystallization [2, 6]: 27.6 mg/mL
Observations: dissolution after overnight at 60° C. [2, 7]: Fully dissolved after overnight at
Observations: time stable at 25° C. before re-crystallization [2, 7]: 60 °C Stable at 25 °C for >4 hours
Pirfenidone (mg/mL) >60° C., assay content after stepwise cooling to 25° C. [2, 7]: 51.8 mg/mL
Pirfenidone (mg/mL) >Re-crystal, assay content after stepwise cooling to 25° C. and later re-crystallization [2, 7]: 26.8 mg/mL
behaviour on rapid cooling to 25°C ([2]; after dissolution at 60°C): rapid recrystallization
full dissolution concentration ([2]; heated to 60°C, 5 mM sodium phosphate pH 6.5 with ethanol, propylene glycol and/or polysorbate 80): ≥ 50 mg/mL
concentration staying in solution ([2]; slow step-wise cooling 60 to 25°C, for several hours before re-crystallization): about 50 mg/mL
